Key:
[1] = PK study after oral (PO) or intraperitoneal (IP) administration; format: in vivo, male Sprague Dawley rats; details: CBG 30 mg/kg PO or IP; Compound 1 31.5 mg/kg PO; Compound 2 32.7 mg/kg PO
Procedure: This study evaluated the pharmacokinetics of (E)-2-(3,7-dimethylocta-2,6-dien-1-yl)-3-methoxy-5-pentylphenol (1) and (E)-2-(3,7-dimethylocta-2,6-dien-1-yl)-1,3-dimethoxy-5-pentylbenzene (2) following oral (PO) or intraperitoneal (IP) administration to male Sprague Dawley rats.
For the oral formulation the test article was added to the appropriate amount of Maisine and stirred until uniform. Next Labrasol was added to the formulation and allowed to stir until uniform. Finally, water will be slowly added to the stirring formulation to achieve the final volume.
For the IP formulation the test article was added to the appropriate amount of ethanol and stirred until uniform. Next, the appropriate amount of tween-20 was added to the stirred formulation. Finally, the appropriate amount of saline was slowly added to the stirred formulation to achieve the final volume.
Animals were fasted the evening prior to dosing with food returned at 4 h postdose, and the animals weighed on the morning of dose administration.
IP doses were administered via injection to the intraperitoneal region. PO doses were delivered into the stomach via syringe and gavage tube.
Blood was collected from via direct jugular stick or from the tail vein. Blood samples were kept on ice until being centrifuged at 3200 RPM for 10 minutes at ˜5° C. within 1 h of collection. Plasma was split into 2 cryovials in approximately equal volumes (0.05 mLs) and stored at −20° C.±5° C. until shipment.

[2] = tested on: indomethacin induced intestinal injury; assay: Indomethacin-induced Crohn's disease in rats; format: in vivo
Procedure: The objective of this study was to determine the efficacy of Compound 1 and Compound 2 in a model of Crohn's disease (indomethacin induced intestinal injury) in rats.
The study design was identical for Compound 1 and Compound 2. On study day -3, rats were weighed and distributed into treatment groups based on body weight.
On study day 0, treatment was initiated and continue as indicated in the Study Design Tables below. Groups 2-6 received a subcutaneous injection of indomethacin (9 mg/kg, 1 ml/kg) in 5% sodium bicarbonate (Sterile Water). On study day 1, Groups 2-6 received a second subcutaneous injection of indomethacin (8 mg/kg, 1 ml/kg) in 5% sodium bicarbonate (Sterile Water). Live phase sample & data collection specifics are outlined below. On study day 4, animals will be euthanized, a section of the small intestine will be removed and weighed. Further necropsy sample and data collection is specified below. Overall efficacy of test articles will be based on body weight, small intestine weight (10 cm), small intestine gross score, and histopathology
At necropsy, the small intestines were evaluated visually and given a gross score according to the following criteria: 0=Normal. 0.5=Very Minimal thickening, multifocal in area at risk. 1=Minimal thickening, fairly diffuse in area at risk. 2=Mild to moderate small intestinal/mesenteric thickening throughout area at risk. 3=Moderate thickening with 1 or more definite adhesions that would be easy to separate. 4=Marked thickening with numerous hard to separate adhesions. 5=Severe intestinal lesion resulting in death.
Preserved 9-cm sections of small intestine were trimmed into 6 transverse sections collected at approximately equal intervals along the […] of the intestine, without bias toward lesion presence or absence. These trimmed sections were processed through graded alcohols and a clearing agent, infiltrated and embedded in paraffin, sectioned, and stained with hematoxylin and eosin (H&E).
Small intestine sections from all animals were examined microscopically by a board-certified veterinary pathologist, and observations were entered into a computer-assisted data retrieval system. Cross sections of small intestine were scored for inflammation and necrosis using the following criteria:
The area at risk for development of this lesion is generally approximately 30% of the total area of a cross section of small intestine where the mesentery attaches.
Inflammation is localized to the mesentery and intestinal area at risk for necrosis with slight extension on either side of it. […] In this case, inflammation is scored based on overall severity ranging from 0.5 (very minimal) to 5 (severe) without regard for the extent of necrosis. The mean score for necrosis and inflammation was calculated for each animal and these mean scores were then summed to arrive at a total score. Each section also has a measurement of total width of mucosal necrosis.

[3] = Group 5 (Compound 1: 200 mg/kg PO)
[4] = Groups 4 and 5 (Compound 1: 50 and 200 mg/kg PO)

CCCCCc1cc(O)c(C/C=C(\C)CCC=C(C)C)c(O)c1 [CBG, cannabigerol]
glucuronidation / glucuronide formation in plasma (in words) [1]: converted by glucuronidation to CBG-glucoronide

CCCCCc1cc(O)c(C/C=C(\C)CCC=C(C)C)c(OC)c1 [Compound 1, (E)-2-(3,7-dimethylocta-2,6-dien-1-yl)-3-methoxy-5-pentylphenol]
glucuronidation / glucuronide formation in plasma (in words) [1]: significantly reduced levels of glucuronidation compared to CBG | small intestine gross score compared to vehicle ([2]; Group 4 (Compound 1: 50 mg/kg PO)): trend in lower small intestine gross score | histopathology scores vs vehicle and dexamethasone [2, 3]: significantly lower | necrosis width vs vehicle and dexamethasone [2, 3]: significantly lower | Histopathology scores vs vehicle (Group 2) and positive control (Group 3) [2, 4]: trended lower | necrosis width vs vehicle (Group 2) and positive control (Group 3) [2, 4]: trended lower | small intestine gross score compared to vehicle ([2]; Groups 5-6 (Compound 1: 200 and 800 mg/kg PO)): significant reductions in gross score | small intestine weight compared to vehicle ([2]; all three treatment groups (Groups 4-6), PO days 0-3): significantly lower | body weight change from Study Day -3 (preventing weight loss) ([2]; all treatment groups (Groups 4-6), PO days 0-3, in comparison to dexamethasone (Compound 2: and vehicle)): all trended towards or had significant differences in preventing weight loss

Source: patent publication US12433903B2 (priority 2021, dated 2025)
